The values that follow come from patent US20250179055A1, “Substituted 2-(pyrrolidine-3-yl)acetic acid derivative, preparation method and use thereof” (INNOVSTONE THERAPEUTICS LIMITED, priority 2023, published 2025).

For this experiment, the target named is Lp(a) assembly in HepG2 cells overexpressing ApoA protein (Homo sapiens (Human), UniProt P08519). Nature of the experiment: ELISA assay on screening Lp(a) assembly inhibition. It is filed as cell-based. The conditions noted are these: HepG2 cells overexpressing ApoA protein, 24 h, ELISA of supernatant. The method, then: Test Example 1 and Methods of ELISA Assay on Screening Lp(a) Assembly Inhibition
Lp(a) assembly in HepG2 cells overexpressing ApoA protein, sequence (P08519 20-2040): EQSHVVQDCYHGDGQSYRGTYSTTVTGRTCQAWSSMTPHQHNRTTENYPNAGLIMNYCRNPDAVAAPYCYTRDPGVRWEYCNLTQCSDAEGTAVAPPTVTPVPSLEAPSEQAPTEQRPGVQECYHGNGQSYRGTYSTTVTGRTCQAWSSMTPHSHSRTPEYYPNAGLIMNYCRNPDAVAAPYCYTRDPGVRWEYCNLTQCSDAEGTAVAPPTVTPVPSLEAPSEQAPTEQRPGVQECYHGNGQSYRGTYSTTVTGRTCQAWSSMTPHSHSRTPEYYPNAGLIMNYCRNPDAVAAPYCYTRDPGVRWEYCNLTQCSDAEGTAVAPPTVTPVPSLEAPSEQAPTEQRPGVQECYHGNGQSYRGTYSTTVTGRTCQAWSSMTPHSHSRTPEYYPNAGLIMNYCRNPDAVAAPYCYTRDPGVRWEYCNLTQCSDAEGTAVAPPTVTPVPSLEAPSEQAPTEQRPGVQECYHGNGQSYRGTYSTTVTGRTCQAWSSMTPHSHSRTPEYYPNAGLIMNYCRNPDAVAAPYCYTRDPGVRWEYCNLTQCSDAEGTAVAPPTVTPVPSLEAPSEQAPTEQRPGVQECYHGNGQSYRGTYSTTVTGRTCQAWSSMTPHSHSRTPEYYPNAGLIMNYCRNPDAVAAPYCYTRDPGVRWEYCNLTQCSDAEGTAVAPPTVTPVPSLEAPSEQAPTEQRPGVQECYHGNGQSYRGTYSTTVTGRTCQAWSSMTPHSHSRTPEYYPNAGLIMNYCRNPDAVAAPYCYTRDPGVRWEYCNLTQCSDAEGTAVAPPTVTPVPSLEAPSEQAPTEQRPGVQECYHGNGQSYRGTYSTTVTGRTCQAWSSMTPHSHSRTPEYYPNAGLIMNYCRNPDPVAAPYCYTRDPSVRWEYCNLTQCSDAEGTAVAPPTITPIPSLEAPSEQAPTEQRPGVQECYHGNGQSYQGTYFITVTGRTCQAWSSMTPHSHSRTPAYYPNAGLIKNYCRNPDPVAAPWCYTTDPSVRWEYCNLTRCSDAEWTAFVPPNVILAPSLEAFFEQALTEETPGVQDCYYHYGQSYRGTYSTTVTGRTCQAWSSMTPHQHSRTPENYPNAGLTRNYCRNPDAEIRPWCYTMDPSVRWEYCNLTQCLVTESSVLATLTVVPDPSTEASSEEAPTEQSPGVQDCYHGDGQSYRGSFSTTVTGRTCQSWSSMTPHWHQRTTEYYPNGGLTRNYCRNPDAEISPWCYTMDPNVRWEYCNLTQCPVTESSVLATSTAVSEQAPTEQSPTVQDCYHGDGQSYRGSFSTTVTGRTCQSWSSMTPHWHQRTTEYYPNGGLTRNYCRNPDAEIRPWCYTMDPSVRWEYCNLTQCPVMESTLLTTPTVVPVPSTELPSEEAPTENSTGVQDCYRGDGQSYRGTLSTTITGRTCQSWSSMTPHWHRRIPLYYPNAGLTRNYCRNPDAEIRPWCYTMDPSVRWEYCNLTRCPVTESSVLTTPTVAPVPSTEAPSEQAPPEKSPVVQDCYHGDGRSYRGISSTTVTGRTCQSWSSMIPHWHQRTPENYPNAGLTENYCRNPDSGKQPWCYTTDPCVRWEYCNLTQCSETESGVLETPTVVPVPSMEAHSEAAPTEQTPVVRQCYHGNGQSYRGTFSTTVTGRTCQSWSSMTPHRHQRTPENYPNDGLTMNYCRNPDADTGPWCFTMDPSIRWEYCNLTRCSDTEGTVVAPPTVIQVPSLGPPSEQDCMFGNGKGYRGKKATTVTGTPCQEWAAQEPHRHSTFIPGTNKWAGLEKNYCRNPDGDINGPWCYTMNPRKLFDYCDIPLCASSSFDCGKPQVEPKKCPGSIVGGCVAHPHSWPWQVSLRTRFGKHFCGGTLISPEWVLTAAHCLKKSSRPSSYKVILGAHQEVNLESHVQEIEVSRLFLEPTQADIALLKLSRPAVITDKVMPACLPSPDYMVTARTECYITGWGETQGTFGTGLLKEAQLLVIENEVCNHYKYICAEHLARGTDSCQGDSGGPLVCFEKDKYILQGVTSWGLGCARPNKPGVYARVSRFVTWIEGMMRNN
• 1) Preheated the culture media, DPBS, and pancreatin in a 37° C. water bath in advance. • 2) Digested cells with pancreatin, transferred the cell suspension to a 15 mL centrifuge tube, and centrifuged at 1000 rpm for 5 min. • 3) Resuspended the cells with culture media and transferred the cell suspension to a new T75 cell culture flask. • 4) Cultured at 37° C. in a 5% CO2 incubator.
• 1) Seeded HepG2 cells overexpressing of ApoA protein into a 96-well plate at 100 μL per well and incubated overnight for attachment. • 2) Replaced with fresh culture media the next day, then added diluted compounds, and cultured the cell plate in a 5% CO2, 37° C. incubator for 24 h.
• 1) Added 10 μL of 1.5 M EACA to each well. • 2) Centrifuged at 1000 rpm for 1 min, and transferred 100 μL of cell culture supernatant to a pre-coated ELISA plate.
• 1) Added 100 μL of capture antibody to each well of a pre-coated ELISA plate and incubated overnight at 25° C. • 2) Added 300 μL of washing solution to each well and washed 5 times for 1 min each time. • 3) Added 100 μL of blocking solution to each well and incubated at 25° C. for 2 h. • 4) Added 300 μL of washing solution to each well and washed 5 times for 1 min each time. • 5) Added 100 μL of sample to each well and incubated at 25° C. for 1 h. • 6) Added 300 μL of washing solution to each well and washed 5 times for 1 min each time. • 7) Added 100 μL of detection antibody to each well and incubated at 25° C. for 1 h. • 8) Added 300 μL of washing solution to each well and washed 5 times for 1 min each time. • 9) Added 100 μL substrate solution (Color Reagent A: Color Reagent B, 1:1) to each well and incubated for 20 min at 25° C. in the dark. • 10) Added […] of stop solution to each well, gently blowed and sucked several times with the pipette tip, and read within 5 min.
[formula] • X: cpd concentration • Y: inhibition % • Top and Bottom: Plateaus in same units as Y • log IC50: same log units as X • HillSlope: Slope factor or Hill slope
On to `O=C(O)C(Cc1cccc(C(=O)N(CCOc2cccc(C[C@H](C(=O)O)[C@H]3CCNC3)c2)Cc2cccc(C[C@H](C(=O)O)[C@H]3CCNC3)c2)c1)C1CCNC1` (stereo in doubt) [Compound 97, (S)-3-(3-((3-((S)-2-carboxy-2-((R)-pyrrolidin-3-yl)ethyl)-N-(2-(3-((S)-2-carboxy-2-((R)-pyrrolidin-3-yl)ethyl)phenoxy)ethyl)benzamido)methyl)phenyl)-2-((R)-pyrrolidin-3-yl)propanoic acid], for which the IC50 – broadly, the concentration needed to halve the response being measured – was determined as 1.46 nM. The result for `O=C(Cc1cccc(CC(C(=O)O)C2CCNC2)c1)NCc1cccc(C[C@H](C(=O)O)[C@H]2CCNC2)c1` (stereo in doubt) [Compound 143, (S)-3-(3-(2-((3-((S)-2-carboxy-2-((R)-pyrrolidin-3-yl)ethyl)benzyl)amino)-2-oxoethyl)phenyl)-2-((R)-pyrrolidin-3-yl)propanoic acid] reads 3.81 nM; that for `N[C@@H](CCCCN(Cc1cc(F)cc(C[C@H](C(=O)O)[C@H]2CCNC2)c1)Cc1cc(F)cc(C[C@H](C(=O)O)[C@H]2CCNC2)c1)C(=O)O` [Compound 5, (2S,2′S)-3,3′-(((((S)-5-amino-5-carboxypentyl)azanediyl)bis(methylene))bis(5-fluoro-3,1-phenylene))bis(2-((R)-pyrrolidin-3-yl)propanoic acid)], 4.12 nM; that for `O=C(O)[C@@H](Cc1cccc(CN(Cc2cccc(C[C@H](C(=O)O)[C@H]3CCNC3)c2)Cc2coc3ccc(C[C@H](C(=O)O)[C@H]4CCNC4)cc23)c1)[C@H]1CCNC1` [Compound 6, (2S,2′S)-3,3′-(((((5-((S)-2-carboxy-2-((R)-pyrrolidin-3-yl)ethyl)benzofuran-3-yl)methyl)azanediyl)bis(methylene))bis(3,1-phenylene))bis(2-((R)-pyrrolidin-3-yl)propanoic acid)], 1.13 nM. In turn, `O=C(O)[C@@H](Cc1cccc(CN(Cc2cccc(C[C@H](C(=O)O)[C@H]3CCNC3)c2)Cc2cc3ccc(C[C@H](C(=O)O)[C@H]4CCNC4)cc3s2)c1)[C@H]1CCNC1` [Compound 11, (2S,2′S)-3,3′-(((((6-((S)-2-carboxy-2-((R)-pyrrolidin-3-yl)ethyl)benzo[b]thiophen-2-yl)methyl)azanediyl)bis(methylene))bis(3,1-phenylene))bis(2-((R)-pyrrolidin-3-yl)propanoic acid)] returned an IC50 of 0.89 nM. Take `O=C(O)[C@@H](Cc1cccc(CN(Cc2cccc(C[C@H](C(=O)O)[C@H]3CCNC3)c2)C(=O)c2cc(F)cc(C[C@H](C(=O)O)[C@H]3CCNC3)c2)c1)[C@H]1CCNC1` [Compound 12, (2S,2′S)-3,3′-((((3-((S)-2-carboxy-2-((R)-pyrrolidin-3-yl)ethyl)-5-fluorobenzoyl)azanediyl)bis(methylene))bis(3,1-phenylene))bis(2-((R)-pyrrolidin-3-yl)propanoic acid)]: 1.17 nM corresponded to half-maximal inhibition (IC50). This IC50 and that of the molecule before are within 1.5-fold of each other.

Turning to `O=C(O)[C@@H](Cc1ccc2occ(CN(Cc3coc4ccc(C[C@H](C(=O)O)[C@H]5CCNC5)cc34)Cc3coc4ccc(C[C@H](C(=O)O)[C@H]5CCNC5)cc34)c2c1)[C@H]1CCNC1` [Compound 47, (2S,2′S,2″S)-3,3′,3″-((nitrilotris(methylene))tris(benzofuran-3,5-diyl))tris(2-((R)-pyrrolidin-3-yl)propanoic acid)], the IC50 was found to be 1.03 nM. The IC50 values of the last two molecules are within 1.5-fold of each other. Molecule `O=C(O)[C@@H](Cc1ccc2scc(CN(Cc3csc4ccc(C[C@H](C(=O)O)[C@H]5CCNC5)cc34)Cc3csc4ccc(C[C@H](C(=O)O)[C@H]5CCNC5)cc34)c2c1)[C@H]1CCNC1` [Compound 49, (2S,2′S,2″S)-3,3′,3″-((nitrilotris(methylene))tris(benzo[b]thiophene-3,5-diyl))tris(2-((R)-pyrrolidin-3-yl)propanoic acid)] returned an IC50 of 3.22 nM. The result for `O=C(O)[C@@H](Cc1cccc(CCN(CCc2cccc(C[C@H](C(=O)O)[C@H]3CCNC3)c2)CCc2cccc(C[C@H](C(=O)O)[C@H]3CCNC3)c2)c1)[C@H]1CCNC1` [Compound 65, (2S,2′S,2″S)-3,3′,3″-((nitrilotris(ethane-2,1-diyl))tris(benzene-3,1-diyl))tris(2-((R)-pyrrolidin-3-yl)propanoic acid)] reads 0.87 nM; that for `O=C(O)[C@@H](Cc1ccc2occ(CCN(CCc3coc4ccc(C[C@H](C(=O)O)[C@H]5CCNC5)cc34)CCc3coc4ccc(C[C@H](C(=O)O)[C@H]5CCNC5)cc34)c2c1)[C@H]1CCNC1` [Compound 67, (2S,2′S,2″S)-3,3′,3″-((nitrilotris(ethane-2,1-diyl))tris(benzofuran-3,5-diyl))tris(2-((R)-pyrrolidin-3-yl)propanoic acid)], 8.55 nM. On to `O=C(O)[C@@H](Cc1cccc(CCN(CCOc2cccc(C[C@H](C(=O)O)[C@H]3CCNC3)c2)CCc2cccc(C[C@H](C(=O)O)[C@H]3CCNC3)c2)c1)[C@H]1CCNC1` [Compound 71, (2S,2′S)-3,3′-((((2-(3-((S)-2-carboxy-2-((R)-pyrrolidin-3-yl)ethyl)phenoxy)ethyl)azanediyl)bis(ethane-2,1-diyl))bis(3,1-phenylene))bis(2-((R)-pyrrolidin-3-yl)propanoic acid)], for which the IC50 was determined as 0.54 nM. This IC50 is about 16-fold lower than that of the molecule before.

With `O=C(CN(CCOc1cccc(C[C@H](C(=O)O)[C@H]2CCNC2)c1)CC(=O)c1cccc(C[C@H](C(=O)O)[C@H]2CCNC2)c1)c1cccc(C[C@H](C(=O)O)[C@H]2CCNC2)c1` [Compound 80, (2S,2′S)-3,3′-((2,2′-((2-(3-((S)-2-carboxy-2-((R)-pyrrolidin-3-yl)ethyl)phenoxy)ethyl)azanediyl)bis(acetyl))bis(3,1-phenylene))bis(2-((R)-pyrrolidin-3-yl)propanoic acid)], the IC50 amounted to 2.31 nM. Regarding `O=C(O)[C@@H](Cc1cccc(CCN(CCc2cccc(C[C@H](C(=O)O)[C@H]3CCNC3)c2)C(=O)COc2cccc(C[C@H](C(=O)O)[C@H]3CCNC3)c2)c1)[C@H]1CCNC1` [Compound 81, (2S,2′S)-3,3′-((((2-(3-((S)-2-carboxy-2-((R)-pyrrolidin-3-yl)ethyl)phenoxy)acetyl)azanediyl)bis(ethane-2,1-diyl))bis(3,1-phenylene))bis(2-((R)-pyrrolidin-3-yl)propanoic acid)], the IC50 was 0.85 nM. This IC50 is about 2.7-fold lower than that of the molecule before. As to `[2H]C([2H])(c1cccc(C[C@H](C(=O)O)[C@H]2CCNC2)c1)N(Cc1cccc(C[C@H](C(=O)O)[C@H]2CCNC2)c1)C([2H])([2H])c1cccc(C[C@H](C(=O)O)[C@H]2CCNC2)c1` [Compound 93, (2S,2′S)-3,3′-((((3-((S)-2-carboxy-2-((R)-pyrrolidin-3-yl)ethyl)benzyl)azanediyl)bis(methylene-d2))bis(3,1-phenylene))bis(2-((R)-pyrrolidin-3-yl)propanoic acid)], half-maximal inhibition (IC50) was put at 0.81 nM. The result for `[2H]C([2H])(c1cccc(C[C@H](C(=O)O)[C@H]2CCNC2)c1)N(Cc1cccc(C[C@H](C(=O)O)[C@H]2CCNC2)c1)Cc1cccc(C[C@H](C(=O)O)[C@H]2CCNC2)c1` [Compound 94, (2S,2′S)-3,3′-(((((3-((S)-2-carboxy-2-((R)-pyrrolidin-3-yl)ethyl)phenyl)methyl-d2)azanediyl)bis(methylene))bis(3,1-phenylene))bis(2-((R)-pyrrolidin-3-yl)propanoic acid)] reads 0.65 nM; that for `O=C(O)[C@@H](Cc1cccc(CCN(Cc2cccc(C[C@H](C(=O)O)[C@H]3CCNC3)c2)C(=O)c2cccc(C[C@H](C(=O)O)[C@H]3CCNC3)c2)c1)[C@H]1CCNC1` [Compound 99, (S)-3-(3-(2-(3-((S)-2-carboxy-2-((R)-pyrrolidin-3-yl)ethyl)-N-(3-((S)-2-carboxy-2-((R)-pyrrolidin-3-yl)ethyl)benzyl)benzamido)ethyl)phenyl)-2-((R)-pyrrolidin-3-yl)propanoic acid], 0.96 nM. The molecule `O=C(O)[C@@H](Cc1cc2c(CN(Cc3cccc4sc(C[C@H](C(=O)O)[C@H]5CCNC5)cc34)Cc3cccc4sc(C[C@H](C(=O)O)[C@H]5CCNC5)cc34)cccc2s1)[C@H]1CCNC1` [Compound 101, (2S,2′S,2″S)-3,3′,3″-((nitrilotris(methylene))tris(benzo[b]thiophene-4,2-diyl))tris(2-((R)-pyrrolidin-3-yl)propanoic acid)] yielded an IC50 of 2.71 nM. Compared with the last molecule, the IC50 is about 2.8-fold higher.

`O=C(O)[C@@H](Cc1cc(CN(Cc2cc(C[C@H](C(=O)O)[C@H]3CCNC3)cc3ccoc23)Cc2cc(C[C@H](C(=O)O)[C@H]3CCNC3)cc3ccoc23)c2occc2c1)[C@H]1CCNC1` [Compound 102, (2S,2′S,2″S)-3,3′,3″-((nitrilotris(methylene))tris(benzofuran-7,5-diyl))tris(2-((R)-pyrrolidin-3-yl)propanoic acid)] had a concentration for half-maximal inhibition (IC50) of 0.74 nM.
